Reference: US6838416B2, “Herbicidal 5-benzyloxymethyl-1,2-isoxazoline derivatives” (Korea Research Institute of Chemical Technology, priority 2000, dated 2005)

What was measured:
Settings in all cases: three weeks after application, 0 untreated control, 100 complete kill
SCPJU (seed) = test: Assay for herbicidal activity, paddy pots: SCPJU; assay type: in vivo, Scirpus juncoides ROXB
Description: (§1) To evaluate herbicidal activity against the paddy weeds in the paddy rice (ORYSA: Oryza sativa L.), the herbicidal activity of the compounds of the invention was compared to that of the compound No.109 (compound A) disclosed in U.S. Pat. […] The paddy weeds tested were ECHOR (Echinochloa crus-galli var. oryzicola), SCPJU (Scirpus juncoides ROXB), MOOVA (Monochoria vaginalis […] (Cyperus serotinus ROTTB), and SAGPY (Sagittaria pygmaea MTQ). The vessels employed were plastic pots having an area of 140 cm^2 and filled with a sandy loam soil containing 1.2% organic matter (pH 6).

SAGPY (tuber) = test: Assay for herbicidal activity, paddy pots: SAGPY; assay type: in vivo, Sagittaria pygmaea MTQ
Description: as §1

CYPSE (tuber) = test: Assay for herbicidal activity, paddy pots: CYPSE; assay type: in vivo, Cyperus serotinus ROTTB
Description: as §1

MOOVA (seed) = test: Assay for herbicidal activity, paddy pots: MOOVA; assay type: in vivo, Monochoria vaginalis PRESL
Description: as §1

ECHOR (seed) = test: Assay for herbicidal activity, paddy pots: ECHOR; assay type: in vivo, Echinochloa crus-galli var. oryzicola
Description: as §1

| SMILES | SCPJU (seed) herbicidal activity, visual percentage grading (SCPJU (seed); 0.016 kg/ha) [%] | SCPJU (seed) herbicidal activity, visual percentage grading (SCPJU (seed); 0.063 kg/ha) [%] | SCPJU (seed) herbicidal activity, visual percentage grading (SCPJU (seed); 0.250 kg/ha) [%] | SCPJU (seed) herbicidal activity, visual percentage grading (SCPJU (seed); 1.000 kg/ha) [%] | SCPJU (seed) herbicidal activity, visual percentage grading (SCPJU (seed); 4.000 kg/ha) [%] | SAGPY (tuber) herbicidal activity, visual percentage grading (SAGPY (tuber); 0.016 kg/ha) [%] | SAGPY (tuber) herbicidal activity, visual percentage grading (SAGPY (tuber); 0.063 kg/ha) [%] | SAGPY (tuber) herbicidal activity, visual percentage grading (SAGPY (tuber); 0.250 kg/ha) [%] | SAGPY (tuber) herbicidal activity, visual percentage grading (SAGPY (tuber); 1.000 kg/ha) [%] | SAGPY (tuber) herbicidal activity, visual percentage grading (SAGPY (tuber); 4.000 kg/ha) [%] | CYPSE (tuber) herbicidal activity, visual percentage grading (CYPSE (tuber); 0.016 kg/ha) [%] | CYPSE (tuber) herbicidal activity, visual percentage grading (CYPSE (tuber); 0.063 kg/ha) [%] | CYPSE (tuber) herbicidal activity, visual percentage grading (CYPSE (tuber); 0.250 kg/ha) [%] | CYPSE (tuber) herbicidal activity, visual percentage grading (CYPSE (tuber); 1.000 kg/ha) [%] | CYPSE (tuber) herbicidal activity, visual percentage grading (CYPSE (tuber); 4.000 kg/ha) [%] | MOOVA (seed) herbicidal activity, visual percentage grading (MOOVA (seed); 0.016 kg/ha) [%] | MOOVA (seed) herbicidal activity, visual percentage grading (MOOVA (seed); 0.063 kg/ha) [%] | MOOVA (seed) herbicidal activity, visual percentage grading (MOOVA (seed); 0.250 kg/ha) [%] | MOOVA (seed) herbicidal activity, visual percentage grading (MOOVA (seed); 1.000 kg/ha) [%] | MOOVA (seed) herbicidal activity, visual percentage grading (MOOVA (seed); 4.000 kg/ha) [%] | other results |
| --- | --- | --- | --- | --- | --- | --- | --- | --- | --- | --- | --- | --- | --- | --- | --- | --- | --- | --- | --- | --- | --- |
| Cc1cc(C)c(C2=NOC(C)(COCc3ccccc3F)C2)s1 (centres unmarked) [EXAMPLE 13, 5-(2-fluorobenzyl)oxymethyl-5-methyl-3-(2,4-dimethylthiophene-5-yl)-1,2-isoxazoline] | 30 | 30 | 70 | 90 | 100 | 0 | 0 | 0 | 0 | 30 | 0 | 0 | 90 | 100 | 100 | 50 | 70 | 80 | 90 | 100 | ECHOR (seed) herbicidal activity, visual percentage grading (ECHOR (seed); 0.016 kg/ha): 50%; ECHOR (seed) herbicidal activity, visual percentage grading (ECHOR (seed); 0.063 kg/ha): 70%; ECHOR (seed) herbicidal activity, visual percentage grading (ECHOR (seed); 0.250 kg/ha): 100%; ECHOR (seed) herbicidal activity, visual percentage grading (ECHOR (seed); 1.000 kg/ha): 100%; ECHOR (seed) herbicidal activity, visual percentage grading (ECHOR (seed); 4.000 kg/ha): 100% |
| Cc1ccc(C2=NOC(C)(COCc3cccc(F)c3)C2)s1 (centres unmarked) [EXAMPLE 3, 5-(3-fluorobenzyl)oxymethyl-5-methyl-3-(2-methylthiophene-5-yl)-1,2-isoxazoline] | 0 | 20 | 40 | 60 | 100 | 0 | 0 | 0 | 50 | 40 | 0 | 40 | 90 | 100 | 100 | 20 | 50 | 60 | 80 | 100 | ECHOR (seed) herbicidal activity, visual percentage grading (ECHOR (seed); 0.016 kg/ha): 20%; ECHOR (seed) herbicidal activity, visual percentage grading (ECHOR (seed); 0.063 kg/ha): 55%; ECHOR (seed) herbicidal activity, visual percentage grading (ECHOR (seed); 0.250 kg/ha): 100%; ECHOR (seed) herbicidal activity, visual percentage grading (ECHOR (seed); 1.000 kg/ha): 100%; ECHOR (seed) herbicidal activity, visual percentage grading (ECHOR (seed); 4.000 kg/ha): 100% |
